The test system of data set [1] is ventricular effective refractory period. Kind of data set: Ventricular effective refractory period in halothane-anesthetized dogs. Format: in vivo. To be noted: for ED (+30 msec): Canis lupus familiaris; for I.D./I.V. (ratio of intraduodenal to intravenous dose): ratio of doses for +30 msec refractory period. Here is the method:
Certain of the compounds of the present invention were tested in halothane-anesthetized dogs in an effort to evaluate the effectiveness of the compounds in increasing the ventricular effective refractory period. Table 2 provides the quantity of specified compound in mg/kg necessary to increase the aforementioned refractory period by 30 msec. when administered either intravenously or intraduadenally. The compounds were tested against clofilium and N-ethyl-N-heptyl-4-nitrobenzenebutanamine, ethanedioic acid for comparative purposes.

Data set [2] deals with normal canine Purkinje fibers. Kind of data set: Action potential duration of normal canine Purkinje fibers superfused in vitro (standard electrophysiological techniques). Format: cell-based. To be noted: Canis lupus familiaris, 10^-7 M, Ringer's solution at 35° C., driven at 1 Hz, read-out: Percent Increase in Action Potential Duration (at 95% of full repolarization). Here is the method:
The antiarrhythmic activity of the compounds provided by the present invention was determined by the use of standard electrophysiological techniques to measure resting potential, action potential amplitude, duration, rate of rise and effective refractory periods of normal canine Purkinje fibers superfused in vitro with Ringer's solution at 35° C. and driven at a constant frequency of 1 Hz. Table 1 presents the data obtained for a number of compounds of the invention when evaluated in this test. The data presented is the percent increase in the action potential duration at 95% of full repolarization at 10^-7 M.

For data set [3] the following is noted: clofilium and similar quaternary ammonium salts; background; cited from earlier work.
The mark [4] stands for this setting: intraduodenal, read-out: quantity of compound necessary to increase the ventricular effective refractory period by 30 msec., Intraduodenal.
Where [5] appears, read: intravenous, read-out: quantity of compound necessary to increase the ventricular effective refractory period by 30 msec., Intravenous.

Like-named read-outs stand apart in the source and are kept apart here.

For `CCCCCCCN(CC)CCCCc1ccc(NS(C)(=O)=O)cc1` [Example 1, N-[4-[4-(Ethylheptylamino)butyl]phenyl]methanesulfonamide ethanedioate], the ED (+30 msec) was 2.2 mg/kg in data set [1] (setting [4]) and 0.29 mg/kg in data set [1] (setting [5]). Moreover, in data set [1], the “I.D./I.V. (ratio of intraduodenal to intravenous dose)” value is on record as 8. Besides, the activation at 0.1 µM in data set [2] was 31 ± 6%.

On to `CCCCCCC[N+](CC)(CC)CCCCc1ccc(Cl)cc1` [clofilium, 4-chloro-N,N-diethyl-N-heptylbenzenebutanaminium phosphate, reference compound], for which the values for the ED (+30 msec) in data set [1] (setting [4]) and in data set [1] (setting [5]) were 7 mg/kg and 0.18 mg/kg, respectively. For the same compound, in data set [1], the “I.D./I.V. (ratio of intraduodenal to intravenous dose)” value is given as 39. For the same compound, the oral bioavailability result in data set [3] is reported as “marginal oral bioavailability”.

As to `CCCCCCCN(CC)C(C)CCCc1ccc(NS(C)(=O)=O)cc1` (centres unmarked) [Example 2, N-[4-[4-(Ethylheptylamino)pentyl]phenyl]methanesulfonamide 2-hydroxy-1,2,3-propanetricarboxylate], the ED (+30 msec) worked out at 8 mg/kg in data set [1] (setting [4]) and 0.27 mg/kg in data set [1] (setting [5]). Besides, the “I.D./I.V. (ratio of intraduodenal to intravenous dose)” value in data set [1] was 30.

`CCCCCCCN(CCCC)C(C)CCCc1ccc(NS(C)(=O)=O)cc1` (centres unmarked) [Example 4, N-[4-[4-(Butylheptylamino)pentyl]phenyl]methanesulfonamide]: the ED (+30 msec) in data set [1] (setting [4]) is 4 mg/kg; in data set [1] (setting [5]), 0.25 mg/kg. Besides, the “I.D./I.V. (ratio of intraduodenal to intravenous dose)” value in data set [1] amounted to 16.

Turning to `CCCCCCCN(CCCC)CCCCc1ccc(NS(C)(=O)=O)cc1` [Example 3, N-[4-[4-(Butylheptylamino)butyl]phenyl]methanesulfonamide ethanedioate], the ED (+30 msec) in data set [1] (setting [4]) worked out at 2.4 mg/kg; in data set [1] (setting [5]) it was 0.1 mg/kg. In data set [1], the “I.D./I.V. (ratio of intraduodenal to intravenous dose)” value is 24. Also, the activation at 0.1 µM in data set [2] stood at 26 ± 4%.

`CCCCCCCN(CC)CCCCc1cccc(NS(C)(=O)=O)c1` [Example 7, N-[3-[4-(Ethylheptylamino)butyl]phenyl]methanesulfonamide]: the activation at 0.1 µM in data set [2] turned out to be 20 ± 9%.

Turning to `CCCCCCCN(CC)CCCCc1ccc(NS(=O)(=O)CC)cc1` [Example 8, N-[4-[4-(Ethylheptylamino)butyl]phenyl]ethanesulfonamide], in data set [2], the activation at 0.1 µM amounted to 19 ± 4%.

For the compound `CCCCCCCN(CC)CCCCc1ccc([N+](=O)[O-])cc1.O=C(O)C(=O)O` [N-ethyl-N-heptyl-4-nitrobenzenebutanamine, ethanedioic acid, reference compound], the ED (+30 msec) in data set [1] (setting [4]) was determined as 1.1 mg/kg; in data set [1] (setting [5]), 0.06 mg/kg. Also, in data set [1], the “I.D./I.V. (ratio of intraduodenal to intravenous dose)” value is 18.
